According to patent US9023851B2 (Merck Patent GmbH, priority 2010, dated 2015):

Tests used:
KDR = biological target: T1, KDR (Homo sapiens, UniProt P35968); assay: KDR enzymatic assay (Caliper LifeSciences technology); format: biochemical
T1 construct: purchased BPS Bioscience, CA, USA
Method in brief: (§1)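 Off-chip mobility-shift assay quantifying conversion of a fluorescent peptide substrate to phosphorylated product. Reactions in 100 mM HEPES pH 7.5, 1 mM DTT, 1 mM MgCl2, 0.015% Brij-35, 90 min at 25 C, stopped with EDTA. IC50 from sigmoidal fit of percent conversion versus inhibitor concentration.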

Src = biological target: T2, Src (Homo sapiens, UniProt P12931); assay: cSrc enzymatic assay (Caliper LifeSciences technology); format: biochemical
T2 construct: purchased Carna Bioscience, Kobe, Japan
T2 sequence (P12931 whole entry): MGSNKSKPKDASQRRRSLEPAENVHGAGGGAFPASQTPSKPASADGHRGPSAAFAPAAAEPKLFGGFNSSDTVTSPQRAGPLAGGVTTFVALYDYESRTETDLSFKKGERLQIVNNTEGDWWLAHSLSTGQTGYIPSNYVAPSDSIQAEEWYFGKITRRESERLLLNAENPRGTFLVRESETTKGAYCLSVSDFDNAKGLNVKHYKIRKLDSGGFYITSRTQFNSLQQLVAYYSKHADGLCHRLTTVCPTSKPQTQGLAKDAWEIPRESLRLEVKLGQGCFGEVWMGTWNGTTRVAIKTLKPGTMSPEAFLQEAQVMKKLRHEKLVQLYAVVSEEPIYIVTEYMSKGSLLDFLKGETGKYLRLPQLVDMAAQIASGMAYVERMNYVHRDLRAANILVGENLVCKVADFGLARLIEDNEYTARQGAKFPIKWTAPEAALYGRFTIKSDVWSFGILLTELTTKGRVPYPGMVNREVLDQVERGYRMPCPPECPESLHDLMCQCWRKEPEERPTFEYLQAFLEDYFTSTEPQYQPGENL
Procedure: (§2) Enzymatic Assays Using the Caliper LifeSciences Technology
(§3) The assays described here are performed on the Caliper Life Sciences LC3000 system This technology provides data on enzyme activity via measurement of the relative amounts of phosphorylated or unphosphorylated fluorescently labelled substrate peptide at the end of an enzymatic reaction. These different states of peptide are resolved by applying a potential difference across the sample. The presence of the charged phosphate group on the product (as opposed to the substrate) causes a different peptide mobility between the two peptides. This is visualized by excitation of the fluorescent label on the substrate and product peptides and represented as peaks within the analysis software.
(§4) In order to measure inhibitor activity of kinase inhibitors on this technology, a TTP Mosquito liquid handling instrument is used to place 0.25 ul of the appropriate concentration of inhibitor in 100% DMSO (for a dose response curve calculation) into each well of a 384-well plate. To this reaction components are added to a final volume of 25 ul. The table below indicates the sequences and concentrations for the assays described in this report. Standard components are 1 mM DTT (Sigma, D0632), 1 mM MgCl2 (Sigma, M1028), 100 mM HEPES pH 7.5 (Calbiochem, 391338), 0.015% Brij-35 (Sigma, B4184).
(§5) The reaction is incubated for 90 min at 25 C, and then stopped by the addition of 70 ul of Stop buffer (100 mM HEPES pH 7.5, 0.015% Brij-35, 10 mM EDTA (Sigma, E7889)).
(§6) The plate is read on a Caliper LC 3000 in an Off-Chip mobility shift assay format, on a 12-sipper chip. Unphosphorylated substrate and phosphorylated product peptide resolve as separate peaks allowing direct measurement of percentage of conversion of substrate to product. The percent conversion can be plotted against concentration of inhibitor to produce a sigmoidal dose response curve, from which an IC50 can be calculated using GeneData Condoseo or a similar product. Cellular activity assays

Syk = biological target: T3, Syk (Homo sapiens, UniProt P43405); assay: Syk enzyme assay (flash plate / Caliper mobility shift); format: biochemical
T3 construct: purchased BPS Bioscience, CA, USA
Method in brief: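 Flashplate format used 2.5 nM SYK, 400 nM biotinylated peptide and 10 µM ATP with 33P tracer, pH 7.5, 1 h at 30 °C, read by radioactivity. Caliper format ran 90 min at 25 °C in HEPES pH 7.5, reading percent peptide conversion by mobility shift. IC50s came from dose-response curves.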

BTK = biological target: T4, BTK (Homo sapiens, UniProt Q06187); assay: BTK enzymatic assay (Caliper LifeSciences technology); format: biochemical
T4 construct: purchased Carna Bioscience, Kobe, Japan
T4 sequence (Q06187 whole entry): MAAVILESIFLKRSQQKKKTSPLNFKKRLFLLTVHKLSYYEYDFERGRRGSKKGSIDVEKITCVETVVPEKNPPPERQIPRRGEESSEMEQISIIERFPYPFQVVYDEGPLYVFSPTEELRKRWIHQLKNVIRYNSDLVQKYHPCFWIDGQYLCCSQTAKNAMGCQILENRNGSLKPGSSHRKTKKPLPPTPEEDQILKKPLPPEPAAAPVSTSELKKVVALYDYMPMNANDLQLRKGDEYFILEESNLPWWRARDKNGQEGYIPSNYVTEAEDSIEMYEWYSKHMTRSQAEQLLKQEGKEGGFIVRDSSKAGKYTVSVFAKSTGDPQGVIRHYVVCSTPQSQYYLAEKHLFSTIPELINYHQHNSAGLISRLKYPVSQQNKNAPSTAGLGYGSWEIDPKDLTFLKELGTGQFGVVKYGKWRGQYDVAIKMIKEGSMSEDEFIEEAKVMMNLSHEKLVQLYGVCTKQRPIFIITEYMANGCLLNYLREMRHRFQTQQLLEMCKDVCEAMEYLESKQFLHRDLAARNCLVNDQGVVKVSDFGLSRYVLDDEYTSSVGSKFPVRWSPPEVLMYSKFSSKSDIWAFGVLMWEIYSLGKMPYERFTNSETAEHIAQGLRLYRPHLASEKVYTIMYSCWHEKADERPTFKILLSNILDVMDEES
Procedure: as §2, §3, §4, §5, §6

ZAP-70 = biological target: T5, ZAP-70 (Homo sapiens, UniProt P43403); assay: Zap70 enzymatic assay (Caliper LifeSciences technology); format: biochemical
T5 construct: purchased BPS Bioscience, CA, USA
T5 sequence (P43403 1-619): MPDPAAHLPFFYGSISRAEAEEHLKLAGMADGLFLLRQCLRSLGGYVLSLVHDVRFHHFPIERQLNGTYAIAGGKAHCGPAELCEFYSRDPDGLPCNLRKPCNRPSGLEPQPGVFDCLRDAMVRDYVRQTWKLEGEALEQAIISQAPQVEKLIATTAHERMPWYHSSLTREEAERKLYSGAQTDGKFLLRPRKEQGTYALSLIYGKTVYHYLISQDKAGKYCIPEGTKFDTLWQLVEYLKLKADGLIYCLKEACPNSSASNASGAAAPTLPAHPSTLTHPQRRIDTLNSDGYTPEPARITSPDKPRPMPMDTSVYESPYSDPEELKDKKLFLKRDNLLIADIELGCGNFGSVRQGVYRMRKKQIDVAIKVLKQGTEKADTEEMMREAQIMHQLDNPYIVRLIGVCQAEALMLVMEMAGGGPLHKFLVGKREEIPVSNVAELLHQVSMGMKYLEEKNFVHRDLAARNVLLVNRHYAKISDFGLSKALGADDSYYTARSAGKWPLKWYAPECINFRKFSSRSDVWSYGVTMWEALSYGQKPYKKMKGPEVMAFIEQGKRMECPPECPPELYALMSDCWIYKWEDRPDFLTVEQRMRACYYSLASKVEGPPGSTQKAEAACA
Method in brief: as §1

Ramos cells = assay: BCR crosslinking-induced BLNK phosphorylation (BLNK cell assay); format: cell-based; details: Homo sapiens
Procedure: 1. BCR Crosslinking-Induced BLNK Phosphorylation
Ramos cells incubated overnight in IMDM medium containing 5% FCS were resuspended in IMDM medium without serum (3.3×10^6 cells/ml). 90 μl of cell suspension (300′000 cells) were incubated with 10 μl of SYK inhibitors (in 3% DMSO) for 20 minutes at 37° C., in 96 well plates. After preincubation with inhibitors, cells were activated with 10 μg/ml of goat antihuman anti-IgM for 10 minutes at 37° C. After stimulation, cells were fixed by addition of 80 μl of 4% paraformaldehyde followed by a 10 minutes incubation at RT and […] in 0.1% Triton X-100 in PBS. BLNK phosphorylation was detected by flow cytometry after staining of the cells with anti-BLNK-pY84-PE antibodies from BD pharmingen, for 45 minutes at RT. […]

GCN2 = GCN2 (Homo sapiens, UniProt Q9P2K8); assay: GCN2 kinase TR-FRET (Lanthascreen) assay; format: biochemical
GCN2, sequence (Q9P2K8 whole entry, species assumed): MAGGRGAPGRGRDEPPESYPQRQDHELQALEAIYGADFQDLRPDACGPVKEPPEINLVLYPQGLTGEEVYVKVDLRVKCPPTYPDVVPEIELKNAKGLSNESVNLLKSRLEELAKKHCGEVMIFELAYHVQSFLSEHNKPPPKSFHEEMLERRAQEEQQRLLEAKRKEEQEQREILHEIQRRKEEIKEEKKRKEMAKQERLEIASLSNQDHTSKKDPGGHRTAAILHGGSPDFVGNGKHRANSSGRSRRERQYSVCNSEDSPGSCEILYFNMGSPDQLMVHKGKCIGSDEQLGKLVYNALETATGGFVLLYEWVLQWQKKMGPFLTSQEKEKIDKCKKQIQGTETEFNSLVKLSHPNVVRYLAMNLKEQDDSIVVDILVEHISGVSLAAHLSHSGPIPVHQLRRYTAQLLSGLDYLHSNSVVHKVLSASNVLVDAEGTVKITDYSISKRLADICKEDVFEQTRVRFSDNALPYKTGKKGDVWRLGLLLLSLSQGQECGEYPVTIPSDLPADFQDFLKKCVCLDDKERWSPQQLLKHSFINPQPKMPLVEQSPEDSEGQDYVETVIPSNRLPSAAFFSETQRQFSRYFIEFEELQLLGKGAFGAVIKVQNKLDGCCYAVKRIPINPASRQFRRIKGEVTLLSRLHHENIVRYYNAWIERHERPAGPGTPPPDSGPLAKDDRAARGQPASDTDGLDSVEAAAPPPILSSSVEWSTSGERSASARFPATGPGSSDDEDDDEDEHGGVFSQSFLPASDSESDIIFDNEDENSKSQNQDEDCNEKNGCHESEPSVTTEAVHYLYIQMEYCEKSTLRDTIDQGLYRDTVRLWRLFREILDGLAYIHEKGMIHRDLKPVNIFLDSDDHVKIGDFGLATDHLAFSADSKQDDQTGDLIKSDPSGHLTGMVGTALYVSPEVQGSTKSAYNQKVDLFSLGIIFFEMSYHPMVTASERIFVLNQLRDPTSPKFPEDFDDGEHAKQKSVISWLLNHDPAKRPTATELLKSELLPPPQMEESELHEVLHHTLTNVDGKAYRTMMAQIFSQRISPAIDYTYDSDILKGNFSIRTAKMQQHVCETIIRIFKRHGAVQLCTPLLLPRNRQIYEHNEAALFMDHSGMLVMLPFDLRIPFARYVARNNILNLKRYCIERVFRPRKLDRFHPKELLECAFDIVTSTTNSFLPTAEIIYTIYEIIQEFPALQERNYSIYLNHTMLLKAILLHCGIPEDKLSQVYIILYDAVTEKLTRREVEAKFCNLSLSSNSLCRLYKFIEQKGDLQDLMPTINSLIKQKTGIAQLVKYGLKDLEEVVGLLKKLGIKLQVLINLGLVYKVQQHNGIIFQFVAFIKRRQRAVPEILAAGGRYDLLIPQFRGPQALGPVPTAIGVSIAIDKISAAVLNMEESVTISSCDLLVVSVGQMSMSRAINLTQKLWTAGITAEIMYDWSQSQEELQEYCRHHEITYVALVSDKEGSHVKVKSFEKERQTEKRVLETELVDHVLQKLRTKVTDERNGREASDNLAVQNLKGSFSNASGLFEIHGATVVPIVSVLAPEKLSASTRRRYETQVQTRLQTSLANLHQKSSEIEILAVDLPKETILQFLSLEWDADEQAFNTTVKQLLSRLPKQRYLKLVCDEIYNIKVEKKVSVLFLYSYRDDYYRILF
Text: GCN2: Assay Principle & Conditions
This assay can quantificate the activity of the serin kinase GCN2 (general control non-derepressible-2).
This kinase is involved in the stress metabolism of cells. It is activated upon starvation (amino acid depletion). Its natural substrate is eIF2a (eukaryotic initiation factor 2 alpha subunit), a translation factor, which gets activated (phosphorylated) by GCN2 in case of an amino acid bottleneck in the cells. This in turn leads to a halt of the protein synthesis. Inhibition of GCN2 results in stopping this mechanism: The cell can not stop protein production upon “starvation” stress.
The assay is run in two steps: the enzymatic reaction and the detection step. In the first step GCN2 is incubated with 10 μM ATP and 80 nM of the GFP-labelled substrate eIF2alpha at room temperature.
The enzymatic reaction is stopped by addition of EDTA. The amount of phosphorylated eIF2alpha is determined by TR-FRET (Lanthascreen): A complex is formed consisting of antibody and GFP labelled phospho-eIF2a, which allows a FRET upon exitation at 340 nm.
The GCN2-activity is directly proportional to the ratio of fluorescence units at the emission wavelengthh 520 nm (phosphopeptide-sensitive wavelength=emission of GFP) to the units at 495 nm (reference wavelength=emission of Terbium-chelate).
Assay Procedure • 4 uL enzyme solution (in assay buffer) • 1.5 uL compound (in cmpd dilution buffer/6.3% DMSO) • Incubation 20 min at RT • 4 uL substrate/ATP mix (in assay buffer) • Incubation 90 min at RT • 10 uL stop/detection mix (in antibody dilution buffer) • Incubation 60 min at RT • Readout Lanthascreen 340/495/5204

[1] = RA Phase II studies in humans; cited from earlier work
[2] = murine model of RA, cited from earlier work
3LL lung carcinoma = details: s.c. 3LL lung carcinoma in mice; cited from earlier work

T1 sequence (P35968 20-1356): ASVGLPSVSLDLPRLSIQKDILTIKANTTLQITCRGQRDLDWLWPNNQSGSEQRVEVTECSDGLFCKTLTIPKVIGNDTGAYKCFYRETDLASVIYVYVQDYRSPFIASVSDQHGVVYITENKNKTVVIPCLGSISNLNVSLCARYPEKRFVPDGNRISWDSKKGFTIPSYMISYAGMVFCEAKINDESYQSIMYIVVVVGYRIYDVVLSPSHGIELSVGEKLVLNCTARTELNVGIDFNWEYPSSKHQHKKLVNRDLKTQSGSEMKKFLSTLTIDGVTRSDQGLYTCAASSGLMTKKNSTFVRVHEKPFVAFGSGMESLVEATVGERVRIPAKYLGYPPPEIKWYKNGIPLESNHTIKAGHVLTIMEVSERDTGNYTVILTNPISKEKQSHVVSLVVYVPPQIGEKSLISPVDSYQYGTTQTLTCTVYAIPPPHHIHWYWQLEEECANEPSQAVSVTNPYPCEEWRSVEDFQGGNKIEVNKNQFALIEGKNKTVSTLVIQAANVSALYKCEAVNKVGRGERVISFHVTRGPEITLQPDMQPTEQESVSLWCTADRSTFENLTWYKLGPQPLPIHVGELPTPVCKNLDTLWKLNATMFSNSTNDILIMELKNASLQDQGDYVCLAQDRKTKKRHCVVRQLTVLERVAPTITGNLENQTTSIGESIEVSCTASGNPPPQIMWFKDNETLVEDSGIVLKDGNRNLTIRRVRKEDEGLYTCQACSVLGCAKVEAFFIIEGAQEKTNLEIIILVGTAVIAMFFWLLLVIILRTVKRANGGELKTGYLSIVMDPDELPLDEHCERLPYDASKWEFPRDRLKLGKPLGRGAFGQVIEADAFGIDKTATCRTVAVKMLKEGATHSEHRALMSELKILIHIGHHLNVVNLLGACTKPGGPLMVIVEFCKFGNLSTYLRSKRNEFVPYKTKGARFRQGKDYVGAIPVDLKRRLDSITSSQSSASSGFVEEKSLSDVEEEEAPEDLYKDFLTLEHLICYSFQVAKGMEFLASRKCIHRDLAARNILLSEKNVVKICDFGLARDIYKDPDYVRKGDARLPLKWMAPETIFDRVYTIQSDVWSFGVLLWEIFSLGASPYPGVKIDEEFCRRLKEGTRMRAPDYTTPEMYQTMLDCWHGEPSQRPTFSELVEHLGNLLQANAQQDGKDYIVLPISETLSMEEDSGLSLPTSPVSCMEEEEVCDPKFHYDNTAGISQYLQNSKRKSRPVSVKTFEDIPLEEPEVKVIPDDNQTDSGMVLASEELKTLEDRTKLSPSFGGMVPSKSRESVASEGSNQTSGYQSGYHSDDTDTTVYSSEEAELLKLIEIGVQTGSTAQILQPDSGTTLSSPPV

Row | Structure (SMILES) | IC50 (KDR) [µM] | IC50 (Src) [µM] | IC50 (Syk) [µM] | IC50 (ZAP-70) [µM] | IC50 (GCN2) [µM] | further results
1 | O=C1Nc2cc(Nc3nc4c(-c5nccs5)nccn4n3)ccc2OC1(F)F [Example C6, 2,2-Difluoro-6-(8-thiazol-2-yl-[1,2,4]triazolo[1,5-a]pyrazin-2-ylamino)-4H-benzo[1,4]oxazin-3-one] | 3 to 50 | 3 to 50 | 3 to 50 | – | – | IC50 (BTK): 3 to 50 µM
2 | COc1cc(Nc2nc3c(-c4ccccc4)nccn3n2)cc(OC)c1 [Example C8, (3,5-Dimethoxy-phenyl)-(8-phenyl-[1,2,4]triazolo[1,5-a]pyrazin-2-yl)-amine] | < 0.3 | – | < 0.3 | – | – | IC50 (BTK): 3 to 50 µM
3 | c1ccc(Nc2nc3c(-c4nccs4)nccn3n2)cc1 [Example C14, Phenyl-(8-thiazol-2-yl-[1,2,4]triazolo[1,5-a]pyrazin-2-yl)-amine] | 3 to 50 | 3 to 50 | 3 to 50 | 3 to 50 | – | IC50 (BTK): 3 to 50 µM
4 | COc1cc(Nc2nc3c(-c4cccnc4)nccn3n2)cc(OC)c1 [Example C19, (3,5-Dimethoxy-phenyl)-(8-pyridin-3-yl-[1,2,4]triazolo[1,5-a]pyrazin-2-yl)-amine] | 0.3 to 3 | 0.3 to 3 | < 0.3 | 3 to 50 | – | IC50 (BTK): 3 to 50 µM; IC50 (Ramos cells): 3 to 50 µM
5 | c1ccc(Cn2ncc3ccc(Nc4nc5c(-c6nccs6)nccn5n4)cc32)cc1 [Example C24, (1-Benzyl-1H-indazol-6-yl)-(8-thiazol-2-yl-[1,2,4]triazolo[1,5-a]pyrazin-2-yl)-amine] | – | – | 0.3 to 3 | 3 to 50 | – | IC50 (BTK): 3 to 50 µM
6 | c1cc(-c2nccn3nc(Nc4ccc(N5CCOCC5)cc4)nc23)c2cc[nH]c2c1 [Example D10, [8-(1H-Indol-4-yl)-[1,2,4]triazolo[1,5-a]pyrazin-2-yl]-(4-morpholin-4-yl-phenyl)-amine] | < 0.3 | < 0.3 | < 0.3 | 3 to 50 | – | IC50 (Ramos cells): 3 to 50 µM
7 | CN1CCN(c2ccc(Nc3nc4c(-c5ccc6c(cnn6C)c5)nccn4n3)cc2)CC1 [Example D15, [8-(1-Methyl-1H-indazol-5-yl)-[1,2,4]triazolo[1,5-a]pyrazin-2-yl]-[4-(4-methyl-piperazin-1-yl)-phenyl]-amine] | 0.3 to 3 | 0.3 to 3 | < 0.3 | 3 to 50 | – | IC50 (Ramos cells): 3 to 50 µM
8 | CN1CCN(c2ccc(Nc3nc4c(-c5cnn(C)c5)nccn4n3)cc2)CC1 [Example D18, [4-(4-Methyl-piperazin-1-yl)-phenyl]-[8-(1-methyl-1H-pyrazol-4-yl)-[1,2,4]triazolo[1,5-a]pyrazin-2-yl]-amine] | 0.3 to 3 | 0.3 to 3 | < 0.3 | 3 to 50 | – | IC50 (Ramos cells): 3 to 50 µM
9 | CN1CCN(c2ccc(Nc3nc4c(-c5cnc6ccccc6c5)nccn4n3)cc2)CC1 [Example D23, [4-(4-Methyl-piperazin-1-yl)-phenyl]-(8-quinolin-3-yl-[1,2,4]triazolo[1,5-a]pyrazin-2-yl)-amine] | 0.3 to 3 | < 0.3 | < 0.3 | 3 to 50 | – | IC50 (Ramos cells): 3 to 50 µM
10 | Cc1cc(C)cc(Nc2nc3c(-c4ccc(N5CCOCC5)cc4)nccn3n2)c1 [Example E2] | – | – | – | – | < 10 | –
11 | FC(F)(F)c1cccc(Nc2nc3c(-c4ccc(N5CCOCC5)cc4)nccn3n2)c1 [Example E3] | – | – | – | – | < 10 | –
12 | Cc1cccc(Nc2nc3c(-c4ccc(N5CCOCC5)cc4)nccn3n2)c1 [Example E4] | – | – | – | – | < 10 | –
13 | COc1cc(OC)cc(-c2nccn3nc(Nc4cc(C)cc(C)c4)nc23)c1 [Example E5] | – | – | – | – | < 10 | –
14 | Cc1cc(C)cc(Nc2nc3c(-c4cccnc4)nccn3n2)c1 [Example E6] | – | – | – | – | < 10 | –
15 | Cn1ccnc1Sc1ccc(Nc2nc3c(-c4ccccc4)nccn3n2)cc1Cl [Example E7] | – | – | – | – | < 10 | –
16 | c1ccc(Cn2ncc3ccc(Nc4nc5c(-c6ccccc6)nccn5n4)cc32)cc1 [Example E8] | – | – | – | – | < 10 | –
17 | c1ccc(Cn2ncc3ccc(Nc4nc5c(-c6nccs6)nccn5n4)cc32)cc1 [Example E9] | – | – | – | – | < 10 | –
18 | COc1ccc(Nc2nc3c(-c4cccnc4)nccn3n2)cc1OC [Example E10] | – | – | – | – | < 10 | –
19 | COc1cc(Nc2ncc(F)c(Nc3ccc4c(n3)NC(=O)C(C)(C)O4)n2)cc(OC)c1OC [Example R406] | – | – | – | – | – | efficacy (ACR scores) [1]: efficacy (ACR scores improvement); tolerability [1]: good tolerability; clinical scores ([2]; orally available Syk inhibitor): significant improvement of clinical scores; serum cytokine concentrations and bone erosion [2]: significantly reduced serum cytokine concentrations, as well as bone erosion
20 | N=C(NO)NCC[C@H](N)C(=O)O [N-hydroxy-nor-L-Arg] | – | – | – | – | – | tumor growth (3LL lung carcinoma): blocks growth of s.c. 3LL lung carcinoma in mice
